Test [1] has as its system CD19 CARs tagged with IKZF1 ZNF2_ZNF3 Q1F. Briefly: Small-molecule screen: Q1F degron-tagged CD19 CAR levels in Jurkat cells, flow cytometry. Format: cell-based, human. The settings on record: versus Helios, Aiolos, Ikaros, GSPT1, CK1a. On the technique in general: A flow cytometer gives signals particle by particle.
In test [2] the target is T1, CD19 CARs tagged with IKZF1 ZNF2_ZNF3 Q1F (Homo sapiens, UniProt Q13422, Q146F).
T1 construct: EC50 (Q1F degron); other: Jurkat cells, 18 hours, CAR levels normalized to no drug; Ymin (Q1F degron); Ymin (%); minimum percent protein remaining; Nluc reporter
T1 sequence (Q13422 whole entry Q146F): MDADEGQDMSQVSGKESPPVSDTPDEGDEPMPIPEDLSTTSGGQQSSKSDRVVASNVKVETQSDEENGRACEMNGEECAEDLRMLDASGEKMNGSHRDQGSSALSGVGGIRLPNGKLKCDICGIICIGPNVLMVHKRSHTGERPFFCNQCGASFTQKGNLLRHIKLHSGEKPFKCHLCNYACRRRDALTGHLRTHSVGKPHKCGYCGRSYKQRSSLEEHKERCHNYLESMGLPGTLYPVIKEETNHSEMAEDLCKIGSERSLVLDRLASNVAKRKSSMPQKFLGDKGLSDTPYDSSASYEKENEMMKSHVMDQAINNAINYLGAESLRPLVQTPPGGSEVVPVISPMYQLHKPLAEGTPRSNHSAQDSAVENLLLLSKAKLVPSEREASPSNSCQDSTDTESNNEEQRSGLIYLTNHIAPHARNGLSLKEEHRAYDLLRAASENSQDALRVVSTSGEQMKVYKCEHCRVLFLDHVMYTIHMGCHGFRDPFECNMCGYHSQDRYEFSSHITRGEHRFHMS
Described as above. Format: cell-based. On the procedure:
A set of potential degron-targeting compounds was screened against the Q1F degron, resulting in a set of potent degron/small-molecule pairs. Lentiviral vectors containing CD19 CARs tagged with IKZF1 ZNF2_ZNF3 Q1F Nluc were transduced into Jurkat cells. The CD19 CAR was similar to the CD19 CAR in Example 2, but comprising the ZNF2_ZNF3 Q1F degron (SEQ ID NO: 19). Transduced cells were treated with a titration of each small molecule or no drug and then incubated at 37° C. for 18 hours. Cells were washed and stained with appropriate staining reagent to measure CAR levels. The cells were incubated at 4° C. in the staining reagents for 20 mins and then washed 3 times before being read on the flow cytometer. CAR levels were normalized to cells that had not been treated with drug. EC50 and Ymin values were calculated using the resulting titration curve. This identified small molecules that potently degraded the Q1F degron-tagged CARs (Table 1).

In test [3] the test system is IKZF1 ZNF2_3 Q1F tagged CD19 CAR. Nature of the test: CRBN and ubiquitin-proteasome pathway dependence of Q1F-tagged CAR degradation in Jurkat cells. Format: cell-based, human. Set-up: tagged CAR remaining / levels of tagged CAR: dose or concentration left out as unconfirmed. On the procedure: (§1) The dependence of Q1F-degron-tagged CAR degradation on CRBN and ubiquitin proteolytic pathway were assessed. CD19-targeting CAR was tagged with either IKZF1 ZNF2_3 Q1F (SEQ ID NO: 19) or Q1F/G6N (SEQ ID NO: 59). Lentiviral vectors containing these tagged CARs were then transduced into wildtype (WT) or cereblon (CRBN) knockout (KO) Jurkat cells.
(§2) Next, dependence of CAR degradation on the ubiquitin-proteosome pathway was tested by treating WT Jurkats transduced with tagged CAR for 2 hours with DMSO, 20 nM or 200 nM Compound C alone, or alongside either 2 μM of the NEDD8 E1 enzyme inhibitor MLN4924 or 2 μM of proteasome blocker Bortezomib (FIG. 11C).

Test [4] addresses T2, IKZF1 ZNF2_3 Q1F tagged CD19 CAR (Homo sapiens, UniProt Q13422, Q146F).
T2 construct: expressed in transfected cells; host or cells: Jurkat wild type, Jurkat CRBN knockout, Jurkat reporter line; lentiviral transduction
The test is described as above. Format: cell-based. Also on record: tagged CAR remaining / levels of tagged CAR: dose or concentration left out as unconfirmed. The settings on record: Jurkat CRBN KO cells, 1 hour. As for the experimental part: as §1, §2

Read-outs that look alike come from different tables or passages of the source.

The source of these data is patent US20230095912A1, “Composition and Methods for Selective Degradation of Engineered Proteins” (Celgene Corporation, priority 2021, published 2023).

T2 sequence (Q13422 141-196 Q146F): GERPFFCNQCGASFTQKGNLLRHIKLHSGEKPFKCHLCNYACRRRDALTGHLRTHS

Turning to `Cc1ncccc1N1CCN(Cc2ccc3c(c2)CN(C2CCC(=O)NC2=O)C3=O)CC1` (stereo not drawn) [Compound C, 3-(5-((4-(2-methylpyridin-3-yl)piperazin-1-yl)methyl)-1-oxoisoindolin-2-yl)piperidine-2,6-dione], in test [1], the “selectivity for the Q1F degron (in words)” value is “highly selective for the Q1F degron”. For the same compound, in test [2] (Degron Q1F (from Table 1), minimum percent protein remaining), the “Ymin (%)” value is reported as 12%. Moreover, the DC50 in test [2] (Degron Q1F (from Table 1), read-out: EC50 (the source's name)) was 23 nM; in test [2] (Jurkat assay described in Example 5, read-out: EC50 for the Q1F degron) it was less than 25 nM; in test [2] (Jurkat cells, 18 hours, CAR levels normalized to no drug, read-out: EC50 (Q1F degron)) it was 23 nM. In test [2] (Jurkat cells, 18 hours, CAR levels normalized to no drug), the “Ymin (Q1F degron)” value is listed as 12%. Further, the “tagged CAR remaining” value in test [3] (WT Jurkat cells, 1 hour) is on record as “below 20%”. For the same compound, the “tagged CAR degradation in the presence of inhibitor” value in test [3] (WT Jurkats, 2 hours, 20 nM or 200 nM, alongside 2 μM MLN4924 or 2 μM Bortezomib) is on record as “failure to degrade tagged CAR”. Moreover, in test [4], the “levels of tagged CAR” value was “remained identical to untagged CAR”.
